The structures appear in SMILES notation.

Experiment [1] concerns the target Recombinant Human NF-Kappab-Inducing Kinase (NIK/MAP3K14) (Homo sapiens, UniProt Q99558). Briefly: Inhibition of auto-phosphorylation of recombinant human NIK/MAP3K14 (AlphaScreen). To be noted: NIK/MAP3K14 auto-phosphorylation, 5 microM ATP, 1 nM enzyme, 2 h at 25° C.; average of values; read-out: Assay 1 IC50. The class given is biochemical. An outline of the steps: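 AlphaScreen read-out used anti-phospho-IKK Ser176/180 antibody after 2 h, 25 °C incubation of compound, 1 nM GST-NIK and 5 µM ATP (final DMSO 0.7%). Percent inhibition referenced to high (enzyme) and low (no enzyme, no ATP) controls; sigmoidal curve fitting gave IC50.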

Experiment [2] relates to p-IKKα levels in L363 (NIK translocated multiple myeloma) cells. Briefly: Effect of compounds on p-IKKα levels in L363 cells (AlphaLISA SureFire Ultra). The settings on record: Homo sapiens, L-363; L363 cells, BAFF stimulated, MG132, 6 h; average of values; read-out: Assay 2 IC50. The class given is cell-based. An outline of the steps: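 Phospho-IKKα (Ser 176/180) was quantified by AlphaLISA in lysed L363 cells after 6 h compound exposure (0.3% DMSO, 11 points, 1:3) alongside 250 ng/ml BAFF and 10 uM MG132, following overnight BAFF priming in low-serum DMEM. Duplicate curves were scaled between BAFF/DMSO/MG132 and unstimulated DMSO wells, then fitted sigmoidally for IC50.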

Recombinant Human NF-Kappab-Inducing Kinase (NIK/MAP3K14), sequence (Q99558 whole entry): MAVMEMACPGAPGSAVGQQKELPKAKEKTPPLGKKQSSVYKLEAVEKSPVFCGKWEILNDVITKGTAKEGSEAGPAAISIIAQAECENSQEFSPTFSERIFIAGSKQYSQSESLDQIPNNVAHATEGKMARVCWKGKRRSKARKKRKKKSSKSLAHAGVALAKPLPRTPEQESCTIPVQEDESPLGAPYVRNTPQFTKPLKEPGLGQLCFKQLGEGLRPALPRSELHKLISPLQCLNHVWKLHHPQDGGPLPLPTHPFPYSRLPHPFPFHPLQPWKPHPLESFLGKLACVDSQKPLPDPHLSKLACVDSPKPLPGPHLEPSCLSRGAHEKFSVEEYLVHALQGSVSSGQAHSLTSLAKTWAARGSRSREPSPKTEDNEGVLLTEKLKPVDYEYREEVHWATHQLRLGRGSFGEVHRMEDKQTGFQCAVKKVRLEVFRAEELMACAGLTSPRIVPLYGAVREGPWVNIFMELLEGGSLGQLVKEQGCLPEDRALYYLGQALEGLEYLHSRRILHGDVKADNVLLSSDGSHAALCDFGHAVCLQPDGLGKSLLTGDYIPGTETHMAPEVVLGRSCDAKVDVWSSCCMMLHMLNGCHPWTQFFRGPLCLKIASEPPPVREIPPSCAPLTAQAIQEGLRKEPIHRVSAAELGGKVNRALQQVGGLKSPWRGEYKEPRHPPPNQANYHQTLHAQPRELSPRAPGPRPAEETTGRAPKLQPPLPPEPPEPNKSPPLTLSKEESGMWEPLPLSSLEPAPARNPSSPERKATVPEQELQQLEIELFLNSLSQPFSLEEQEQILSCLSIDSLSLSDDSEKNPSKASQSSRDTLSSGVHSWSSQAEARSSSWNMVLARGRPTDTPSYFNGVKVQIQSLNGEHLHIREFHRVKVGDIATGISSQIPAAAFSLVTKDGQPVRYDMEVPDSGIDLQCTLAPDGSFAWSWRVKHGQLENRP

As to `Cc1ncc2cc(-c3cccc(-c4cc([C@]5(O)CCN(C)C5=O)on4)c3)ccn12` [Example 60, (R)-3-hydroxy-1-methyl-3-(3-(3-(3-methylimidazo[1,5-a]pyridin-7-yl)phenyl)isoxazol-5-yl)pyrrolidin-2-one], the IC50 in experiment [1] and in experiment [2] was greater than 501 nM in each case.

Take `CN1CC[C@@](O)(c2cc(-c3cccc(-c4cnc5cnccn45)c3)no2)C1=O` [Example 61, (R)-3-Hydroxy-3-(3-(3-(imidazo[1,2-a]pyrazin-3-yl)phenyl)isoxazol-5-yl)-1-methylpyrrolidin-2-one]: the IC50 in experiment [1] is 100 to 500 nM; in experiment [2], greater than 501 nM.

Take `CN1CC[C@@](O)(c2cc(-c3cccc(-c4ccc5ncn(C)c5c4)c3)no2)C1=O` [Example 62, (R)-3-Hydroxy-1-methyl-3-(3-(3-(1-methyl-1H-benzo[d]imidazol-6-yl)phenyl)isoxazol-5-yl)pyrrolidin-2-one]: the IC50 in experiment [1] and in experiment [2] was greater than 501 nM each time.

Turning to `Cc1nc2cc(-c3cccc(-c4cc([C@]5(O)CCN(C)C5=O)on4)c3)ccc2o1` [Example 63, (R)-3-Hydroxy-1-methyl-3-(3-(3-(2-methylbenzo[d]oxazol-5-yl)phenyl)isoxazol-5-yl)pyrrolidin-2-one], the IC50 in experiment [1] and in experiment [2] was greater than 501 nM in each case.

In the case of `CN1CC[C@@](O)(c2cc(-c3cccc(-c4ccn5ncccc45)c3)no2)C1=O` [Example 64, (R)-3-Hydroxy-1-methyl-3-(3-(3-(pyrrolo[1,2-b]pyridazin-5-yl)phenyl)isoxazol-5-yl)pyrrolidin-2-one], the half-inhibitory concentration (IC50) in experiment [1] and in experiment [2] was greater than 501 nM in each case.

`Cc1cn2nc(-c3cccc(-c4cc([C@]5(O)CCN(C)C5=O)on4)c3)ccc2n1` [Example 65, (R)-3-Hydroxy-1-methyl-3-(3-(3-(2-methylimidazo[1,2-b]pyridazin-6-yl)phenyl)isoxazol-5-yl)pyrrolidin-2-one]: the IC50 in experiment [1] and in experiment [2] was greater than 501 nM throughout.

Take `CN1CC[C@@](O)(c2cc(-c3cccc(-c4ccc5occc5n4)c3)no2)C1=O` [Example 66, (R)-3-(3-(3-(Furo[3,2-b]pyridin-5-yl)phenyl)isoxazol-5-yl)-3-hydroxy-1-methylpyrrolidin-2-one]: the IC50 in experiment [1] and in experiment [2] was greater than 501 nM in each case.

For the molecule `CN1CC[C@@](O)(c2cc(-c3cccc(-c4ccn5cncc5c4)c3)no2)C1=O` [Example 67, (R)-3-Hydroxy-3-(3-(3-(imidazo[1,5-a]pyridin-7-yl)phenyl)isoxazol-5-yl)-1-methylpyrrolidin-2-one], the values for the IC50 in experiment [1] and in experiment [2] were 100 to 500 nM and greater than 501 nM, respectively.

As for `CN1CC[C@@](O)(c2cc(-c3cccc(-c4ccn5nccc5n4)c3)no2)C1=O` [Example 68, (R)-3-Hydroxy-1-methyl-3-(3-(3-(pyrazolo[1,5-a]pyrimidin-5-yl)phenyl)isoxazol-5-yl)pyrrolidin-2-one], the IC50 in experiment [1] and in experiment [2] was greater than 501 nM each time.

In the case of `CN1CC[C@@](O)(c2cc(-c3cccc(-c4ccc5ncoc5c4)c3)no2)C1=O` [Example 69, (R)-3-(3-(3-(Benzo[d]oxazol-6-yl)phenyl)isoxazol-5-yl)-3-hydroxy-1-methylpyrrolidin-2-one], the IC50 in experiment [1] and in experiment [2] was greater than 501 nM throughout.

With `CN1CC[C@@](O)(c2cc(-c3cccc(-c4cn5ccnc5cn4)c3)no2)C1=O` [Example 70, (R)-3-Hydroxy-3-(3-(3-(imidazo[1,2-a]pyrazin-6-yl)phenyl)isoxazol-5-yl)-1-methylpyrrolidin-2-one], the IC50 in experiment [1] and in experiment [2] was greater than 501 nM each time.

Take `CN1CC[C@@](O)(c2cc(-c3cccc(-c4ccc5nccn5c4)c3)no2)C1=O` [Example 71, (R)-3-Hydroxy-3-(3-(3-(imidazo[1,2-a]pyridin-6-yl)phenyl)isoxazol-5-yl)-1-methylpyrrolidin-2-one]: the IC50 in experiment [1] and in experiment [2] was greater than 501 nM throughout.

Consider `CN1CC[C@@](O)(c2cc(-c3cccc(-c4ncnc5sccc45)c3)no2)C1=O` [Example 72, (R)-3-Hydroxy-1-methyl-3-(3-(3-(thieno[2,3-d]pyrimidin-4-yl)phenyl)isoxazol-5-yl)pyrrolidin-2-one], for which the IC50 in experiment [1] and in experiment [2] was greater than 501 nM throughout.

`CCc1c[nH]c2ncnc(-c3cccc(-c4cc([C@]5(O)CCN(C)C5=O)on4)c3)c12` [Example 73, (R)-3-(3-(3-(5-Ethyl-7H-pyrrolo[2,3-d]pyrimidin-4-yl)phenyl)isoxazol-5-yl)-3-hydroxy-1-methylpyrrolidin-2-one]: the IC50 in experiment [1] and in experiment [2] was greater than 501 nM throughout.

Take `CN1CC[C@@](O)(c2cc(-c3cccc(-c4ccc5nnc(N)n5c4)c3)no2)C1=O` [Example 74, (R)-3-(3-(3-(3-Amino-[1,2,4]triazolo[4,3-a]pyridin-6-yl)phenyl)isoxazol-5-yl)-3-hydroxy-1-methylpyrrolidin-2-one]: the concentration for half-maximal inhibition (IC50) in experiment [1] and in experiment [2] was greater than 501 nM each time.

With `CN1CC[C@@](O)(c2cc(-c3cccc(-c4cc5c[nH]nc5cn4)c3)no2)C1=O` [Example 75, (R)-3-(3-(3-(2H-pyrazolo[3,4-c]pyridin-5-yl)phenyl)isoxazol-5-yl)-3-hydroxy-1-methylpyrrolidin-2-one], the IC50 was 100 to 500 nM in experiment [1] and greater than 501 nM in experiment [2].

Take `COc1cc(-c2cccc(-c3cc([C@]4(O)CCN(C)C4=O)on3)c2)cc2c1cnn2C` [Example 76, (R)-3-Hydroxy-3-(3-(3-(4-methoxy-1-methyl-1H-indazol-6-yl)phenyl)isoxazol-5-yl)-1-methylpyrrolidin-2-one]: the IC50 in experiment [1] is 100 to 500 nM; in experiment [2], greater than 501 nM.

In the case of `CN1CC[C@@](O)(c2cc(-c3cccc(-c4cccc5[nH]ccc45)c3)no2)C1=O` [Example 77, (R)-3-(3-(3-(1H-Indol-4-yl)phenyl)isoxazol-5-yl)-3-hydroxy-1-methylpyrrolidin-2-one], the IC50 in experiment [1] and in experiment [2] was greater than 501 nM each time.

On to `CN1CC[C@@](O)(c2cc(-c3cccc(-c4ccc5cnn(C)c5n4)c3)no2)C1=O` [Example 78, (R)-3-Hydroxy-1-methyl-3-(3-(3-(1-methyl-1H-pyrazolo[3,4-b]pyridin-6-yl)phenyl)isoxazol-5-yl)pyrrolidin-2-one], for which the IC50 in experiment [1] is 100 to 500 nM; in experiment [2], greater than 501 nM.

In the case of `Cc1cn2cc(-c3cccc(-c4cc([C@]5(O)CCN(C)C5=O)on4)c3)ccc2n1` [Example 79, (R)-3-Hydroxy-1-methyl-3-(3-(3-(2-methylimidazo[1,2-a]pyridin-6-yl)phenyl)isoxazol-5-yl)pyrrolidin-2-one], the IC50 in experiment [1] and in experiment [2] was greater than 501 nM throughout.

With `CN1CC[C@@](O)(c2cc(-c3cccc(-c4ccc5c(c4)N(C)C(=O)CN5)c3)no2)C1=O` [Example 80, (R)-7-(3-(5-(3-Hydroxy-1-methyl-2-oxopyrrolidin-3-yl)isoxazol-3-yl)phenyl)-1-methyl-3,4-dihydroquinoxalin-2(1H)-one], the IC50 in experiment [1] and in experiment [2] was greater than 501 nM in each case.

For `COc1cc2c(cc1-c1cccc(-c3cc([C@]4(O)CCN(C)C4=O)on3)c1)COC2` [Example 81, (R)-3-Hydroxy-3-(3-(3-(6-methoxy-1,3-dihydroisobenzofuran-5-yl)phenyl)isoxazol-5-yl)-1-methylpyrrolidin-2-one], the IC50 in experiment [1] and in experiment [2] was greater than 501 nM each time.

As for `CN1CC[C@@](O)(c2cc(-c3cccc(-c4cccc5c(=O)[nH]ccc45)c3)no2)C1=O` [Example 82, (R)-5-(3-(5-(3-Hydroxy-1-methyl-2-oxopyrrolidin-3-yl)isoxazol-3-yl)phenyl)isoquinolin-1 (2H)-one], the IC50 in experiment [1] and in experiment [2] was greater than 501 nM in each case.

For `CN1CC[C@@](O)(c2cc(-c3cccc(-c4cc5[nH]ncc5cn4)c3)no2)C1=O` [Example 83, (R)-3-(3-(3-(1H-pyrazolo[4,3-c]pyridin-6-yl)phenyl)isoxazol-5-yl)-3-hydroxy-1-methylpyrrolidin-2-one], the IC50 in experiment [1] and in experiment [2] was greater than 501 nM in each case.

Turning to `Cc1n[nH]c2nc(-c3cccc(-c4cc([C@]5(O)CCN(C)C5=O)on4)c3)cc(C(N)=O)c12` [Example 84, (R)-6-(3-(5-(3-Hydroxy-1-methyl-2-oxopyrrolidin-3-yl)isoxazol-3-yl)phenyl)-3-methyl-1H-pyrazolo[3,4-b]pyridine-4-carboxamide], the IC50 in experiment [1] and in experiment [2] was greater than 501 nM throughout.

Take `CN1CC[C@@](O)(c2cc(-c3cccc(-c4cc(C5CC5)nc(C(N)=O)n4)c3)no2)C1=O` [Example 85, (R)-4-Cyclopropyl-6-(3-(5-(3-hydroxy-1-methyl-2-oxopyrrolidin-3-yl)isoxazol-3-yl)phenyl)pyrimidine-2-carboxamide]: the IC50 is less than 100 nM in experiment [1] and greater than 501 nM in experiment [2].

Turning to `CN1CC[C@@](O)(c2cc(-c3cccc(-c4cccc5cnc(N)nc45)c3)no2)C1=O` [Example 86, (R)-3-(3-(3-(2-Aminoquinazolin-8-yl)phenyl)isoxazol-5-yl)-3-hydroxy-1-methylpyrrolidin-2-one], the IC50 was less than 100 nM in experiment [1] and greater than 501 nM in experiment [2].

On to `COc1ccc(-c2cccc(-c3cc([C@]4(O)CCN(C)C4=O)on3)c2)nc1C(N)=O` [Example 87, (R)-6-(3-(5-(3-Hydroxy-1-methyl-2-oxopyrrolidin-3-yl)isoxazol-3-yl)phenyl)-3-methoxypicolinamide], for which the IC50 in experiment [1] and in experiment [2] was greater than 501 nM each time.
